Data on 51 compounds can be found in patent publication US11427556B2, “Urea derivatives as inhibitors of ASK1” (Hepagene Therapeutics (HK) Limited, priority 2017, dated 2022).

Like-named read-outs stand apart in the source and are kept apart here.

The assay addresses T1, Recombinant human ASK1 kinase (Homo sapiens, UniProt Q99683).
T1 construct: purchased Invitrogen Inc
T1 sequence (Q99683 1-1374): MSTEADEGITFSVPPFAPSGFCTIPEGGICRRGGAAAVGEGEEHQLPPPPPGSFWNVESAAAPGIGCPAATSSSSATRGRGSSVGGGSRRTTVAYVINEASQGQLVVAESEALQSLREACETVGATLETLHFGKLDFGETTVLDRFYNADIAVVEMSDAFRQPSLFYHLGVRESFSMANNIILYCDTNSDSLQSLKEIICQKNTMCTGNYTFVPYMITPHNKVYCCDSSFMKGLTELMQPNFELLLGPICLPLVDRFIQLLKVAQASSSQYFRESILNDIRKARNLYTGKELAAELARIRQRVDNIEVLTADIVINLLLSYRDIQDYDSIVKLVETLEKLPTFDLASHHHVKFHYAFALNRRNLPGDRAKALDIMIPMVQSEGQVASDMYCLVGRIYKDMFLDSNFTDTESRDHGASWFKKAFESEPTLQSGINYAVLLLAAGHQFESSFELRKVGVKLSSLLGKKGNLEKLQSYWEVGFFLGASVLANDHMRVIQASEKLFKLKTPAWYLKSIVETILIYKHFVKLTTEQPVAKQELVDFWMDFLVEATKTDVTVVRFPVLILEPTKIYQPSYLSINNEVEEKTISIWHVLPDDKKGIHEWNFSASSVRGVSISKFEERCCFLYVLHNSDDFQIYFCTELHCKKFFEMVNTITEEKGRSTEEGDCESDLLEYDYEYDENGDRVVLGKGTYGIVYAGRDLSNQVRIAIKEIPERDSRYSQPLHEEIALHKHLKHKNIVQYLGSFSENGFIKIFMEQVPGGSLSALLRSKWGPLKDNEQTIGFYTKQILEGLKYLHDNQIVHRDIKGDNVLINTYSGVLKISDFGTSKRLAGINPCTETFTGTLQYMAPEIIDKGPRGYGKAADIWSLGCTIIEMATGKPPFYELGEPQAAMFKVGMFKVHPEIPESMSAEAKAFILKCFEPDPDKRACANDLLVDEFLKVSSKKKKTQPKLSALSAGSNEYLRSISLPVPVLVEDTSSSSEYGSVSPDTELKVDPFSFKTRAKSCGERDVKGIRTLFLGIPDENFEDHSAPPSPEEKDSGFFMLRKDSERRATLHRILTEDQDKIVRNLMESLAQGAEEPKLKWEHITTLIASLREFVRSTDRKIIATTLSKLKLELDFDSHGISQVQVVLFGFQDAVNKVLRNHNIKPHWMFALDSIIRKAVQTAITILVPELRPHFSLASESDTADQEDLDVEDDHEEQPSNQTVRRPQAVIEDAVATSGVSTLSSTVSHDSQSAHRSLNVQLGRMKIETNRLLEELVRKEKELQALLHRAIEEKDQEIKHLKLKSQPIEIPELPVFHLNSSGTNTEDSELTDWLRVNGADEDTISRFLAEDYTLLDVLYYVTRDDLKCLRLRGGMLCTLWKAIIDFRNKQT
Kind of assay: ASK1 kinase HTRF assay (HTRF KinEASE-STK, phosphorylation of biotinylated peptide substrate). It counts as biochemical. How it is done: Reagents: Recombinant human ASK1 kinase was from Invitrogen Inc. HTRF KinEASETM-STK S3 kit was obtained from Cisbio (Bedford, Mass.). All other reagents were of the highest grade commercially available.
Assay: The assay measures the phosphorylation level of a biotinylatd peptide substrate by the ASK1 kinase using HTRF detection. ASK1 kinase assay is based on HTRF KinEASETM-STK manual from Cisbio. Test compound, 1 uM STK-substrate-biotin, 3 nM of ASK1 kinase are incubated with 1*Kinase buffer with 5 mM MgCl2 and 1 mM DTT.
(TR-FRET usually uses a lanthanide donor and a delayed reading to cut background.)

Setting [1] is: 3 nM ASK1 kinase, 1 uM STK-substrate-biotin, HTRF detection, read-out: EC50.

A word on the EC50: it is the concentration giving half of the maximal effect. On to `CC(C)n1cnnc1-c1cccc(NC(=O)Nc2cc(Cl)ccn2)n1` [Compound I-181], for which, under setting [1], the EC50 was less than 50 nM.
In the case of `CC(C)n1cnnc1-c1cccc(NC(=O)Nc2cc(C(=O)N3CCCCCC3)ccn2)n1` [Compound I-147], the EC50 under setting [1] was less than 50 nM.
On to `CC1CN(c2ccc(N3CCN(c4cccc(-c5nncn5C(C)C)n4)C3=O)nc2)CCO1` (stereo not drawn) [Compound V-17], for which the EC50 under setting [1] is less than 50 nM.
Consider `C[C@H](CO)n1cnnc1-c1cccc(NC(=O)Nc2cc(C(=O)N3CCC(O)CC3)ccn2)n1` [Compound I-137], for which, under setting [1], the EC50 is less than 50 nM.
As for `CC(C)n1cnnc1-c1cccc(NC(=O)Nc2cccnc2)n1` [Compound I-032], the EC50 was in the range of 50 to 500 nM.
For the compound `O=C(Nc1cccc(-c2nncn2C2CC2)n1)Nc1ccc2ccccc2n1` [Compound I-068], the EC50 under setting [1] was less than 50 nM.
Consider `CC(C)n1cnnc1-c1cccc(NC(=O)Nc2ccc(Cl)cn2)n1` [Compound I-184], for which the EC50 under setting [1] was less than 50 nM.
`CC(C)n1cnnc1-c1cccc(NC(=O)Nc2cc(C(C)(C)O)ccn2)n1` [Compound I-213]: the EC50 under setting [1] is less than 50 nM.
On to `CC(C)n1cnnc1-c1cccc(N2CCN(c3ccc(N4CCOCC4)cc3)C2=O)n1` [Compound V-11], for which, under setting [1], the EC50 is less than 50 nM.
On the same count and under the same terms, the figure for `CC(C)n1cnnc1-c1cccc(NC(=O)Nc2ccc(-c3cccnc3)cn2)n1` [Compound I-089] is less than 50 nM; for `CC(C)n1cnnc1-c1cccc(NC(=O)Nc2cccc(C(F)(F)F)n2)n1` [Compound I-196] it is less than 50 nM.
Take `C[C@H](CO)n1cnnc1-c1cccc(NC(=O)Nc2ccc3ccccc3n2)n1` [Compound I-069]: the EC50 is less than 50 nM.
`CC(C)n1cnnc1-c1cccc(NC(=O)Nc2cc(O)ccn2)n1` [Compound I-073]: the EC50 under setting [1] lay within 50 to 500 nM.
With `CC(C)n1cnnc1-c1cccc(NC(=O)Nc2cc(C(=O)Nc3ccc4ccccc4c3)ccn2)n1` [Compound I-154], the EC50 under setting [1] is less than 50 nM.
Regarding `CC(C)n1cnnc1-c1cccc(NC(=O)Nc2cc(C#N)ccn2)n1` [Compound I-198], the EC50 under setting [1] was less than 50 nM.
As for `CC(C)n1cnnc1-c1cccc(-n2ccn(-c3ccc(-c4ccccc4)cn3)c2=O)n1` [III-06], under setting [1], the EC50 is less than 50 nM.
On to `CC(C)n1cnnc1-c1cccc(NC(=O)Nc2cc(C(=O)Nc3ccccc3F)ccn2)n1` [Compound I-156], for which the EC50 under setting [1] is less than 50 nM.
For the compound `CC(C)n1cnnc1-c1cccc(NC(=O)Nc2cc(C3CCCCC3)ccn2)n1` [Compound I-049], the EC50 under setting [1] was less than 50 nM.
In the case of `CC(C)n1cnnc1-c1cccc(NC(=O)Nc2ccccc2)n1` [Compound I-016], the EC50 fell in the range of 50 to 500 nM.
Take `CC(C)n1cnnc1-c1cccc(NC(=O)Nc2ncccc2F)n1` [Compound I-186]: the EC50 under setting [1] is less than 50 nM.
As to `CC(C)n1cnnc1-c1cccc(NC(=O)Nc2ncccc2Br)n1` [Compound I-176], the EC50 under setting [1] was less than 50 nM.
In the case of `CC(C)n1cnnc1-c1cccc(N2CCN(c3ccc(-c4ccc(F)cc4)cn3)C2=O)n1` [Compound V-06], under setting [1], the EC50 is less than 50 nM.
In the case of `CC(C)n1cnnc1-c1cccc(NC(=O)Nc2cc(C(=O)N3CCC(=O)CC3)ccn2)n1` [Compound I-134], the 50% effective concentration (EC50) was less than 50 nM.
In the case of `CC(C)n1cnnc1-c1cccc(NC(=O)Nc2ccc(N3CCNCC3)cn2)n1` [Compound I-097], the EC50 under setting [1] is less than 50 nM.
Take `CC(C)n1cnnc1-c1cccc(NC(=O)Nc2cc(F)ccn2)n1` [Compound I-187]: under setting [1], the EC50 was less than 50 nM.
On to `CC(CN)n1cnnc1-c1cccc(NC(=O)Nc2ccccn2)n1` (stereo not drawn) [Compound I-030], for which the EC50 under setting [1] was 50 to 500 nM.
The same measure, in the same setting: then `CC(C)n1cnnc1-c1cccc(NC(=O)Nc2cc(C(=O)N3CCC(O)CC3)ccn2)n1` [Compound I-136], with less than 50 nM.
With `CC(C)n1cnnc1-c1cccc(NC(=O)Nc2cc(-c3ccccn3)ccn2)n1` [Compound I-084], under setting [1], the EC50 was less than 50 nM.
As to `C[C@H](CO)n1cnnc1-c1cccc(NC(=O)Nc2cc(N3CCNCC3)ccn2)n1` [Compound I-096], under setting [1], the EC50 is less than 50 nM.
Same read-out and setting: the figure for `CC(C)n1cnnc1-c1cccc(NC(=O)Nc2cc(C(=O)N3C4CCCC3CC4)ccn2)n1` [Compound I-149] is less than 50 nM; for `CC(C)n1cnnc1-c1cccc(N2CCN(c3ccc(F)cn3)C2=O)n1` [Compound V-02] it is less than 50 nM; for `CC(C)n1cnnc1-c1cccc(NC(=O)Nc2ccc(C(N)=O)cn2)n1` [Compound I-009, 6-(3-(6-(4-Isopropyl-4H-1,2,4-triazol-3-yl)pyridin-2-yl)ureido)nicotinamide] it is less than 50 nM.
With `CC(C)n1cnnc1-c1cccc(NC(=O)Nc2cc(C3CCOCC3)ccn2)n1` [Compound I-091], under setting [1], the half-maximal effective concentration (EC50) is less than 50 nM.
As for `CC(C)n1cnnc1-c1cccc(NC(=O)Nc2cc(C(=O)Nc3ccc(C(C)(C)C)cc3)ccn2)n1` [Compound I-160], under setting [1], the EC50 was less than 50 nM.
With `CC(C)n1cnnc1-c1cccc(NC(=O)Nc2ccc(-c3ccccc3)cn2)n1` [Compound I-076], the EC50 under setting [1] was less than 50 nM.
For the compound `Cc1cnc(NC(=O)Nc2cccc(-c3nncn3C(C)C)n2)cc1C` [Compound I-043], under setting [1], the 50% effective concentration (EC50) is less than 50 nM.
For `CC(C)n1cnnc1-c1cccc(NC(=O)Nc2ncccc2C(F)(F)F)n1` [Compound I-193], the EC50 under setting [1] is less than 50 nM.
Regarding `C[C@H](CO)n1cnnc1-c1cccc(NC(=O)Nc2cc(C(=O)N3CCN(C)CC3)ccn2)n1` [Compound I-142], the EC50 under setting [1] is less than 50 nM.
Turning to `COc1cccnc1NC(=O)Nc1cccc(-c2nncn2C(C)C)n1` [Compound I-055], the EC50 under setting [1] was less than 50 nM.
On to `CC(C)n1cnnc1-c1cccc(NC(=O)Nc2cc(C(=O)N3CCCC[C@@H]3C)ccn2)n1` [Compound I-118], for which, under setting [1], the EC50 is less than 50 nM.
On the same count and under the same terms, the figure for `CC(C)(C)n1cnnc1-c1cccc(NC(=O)Nc2cc(C(=O)N3CCCCC3)ccn2)n1` [Compound I-008, 3-[6-(4-tert-Butyl-4H-1,2,4-triazol-3-yl)pyridin-2-yl]-1-[4-(piperidine-1-carbonyl)pyridin-2-yl]urea] is less than 50 nM.
With `CC(C)n1cnnc1-c1cccc(N2CCN(c3ccc(N4CCOC[C@@H]4C)cn3)C2=O)n1` [Compound V-14], the EC50 under setting [1] is less than 50 nM.
In the case of `CC(C)n1cnnc1-c1cccc(NC(=O)Nc2cc(C(=O)Nc3cccnc3)ccn2)n1` [Compound I-162], the EC50 under setting [1] was less than 50 nM.
With `CC(C)n1cnnc1-c1cccc(NC(=O)Nc2ccc([N+](=O)[O-])cn2)n1` [Compound I-210], under setting [1], the EC50 was less than 50 nM.
`C[C@H](CO)n1cnnc1-c1cccc(NC(=O)Nc2cc(C(=O)N3CCOCC3)ccn2)n1` [Compound I-133]: the EC50 was less than 50 nM.
As for `CC(C)n1cnnc1-c1cccc(NC(=O)Nc2ccc(N3CCCC3)cn2)n1` [Compound I-165], the EC50 under setting [1] is less than 50 nM.
Turning to `C[C@H](CO)n1cnnc1-c1cccc(NC(=O)Nc2cc(Cl)ccn2)n1` [Compound I-182], under setting [1], the EC50 is less than 50 nM.
For `CC(C)n1cnnc1-c1cccc(NC(=O)Nc2cc(C(=O)N3CCCC4CCCCC43)ccn2)n1` (stereo not drawn) [Compound I-125], under setting [1], the concentration for a half-maximal effect (EC50) was less than 50 nM.
Consider `C[C@H](CO)n1cnnc1-c1cccc(NC(=O)Nc2cc(C(=O)Nc3ccncc3)ccn2)n1` [Compound I-164], for which the concentration for a half-maximal effect (EC50) under setting [1] is less than 50 nM.
On to `C[C@H](CO)n1cnnc1-c1cccc(NC(=O)Nc2cc3ccccc3cn2)n1` [Compound I-058], for which, under setting [1], the EC50 was less than 50 nM.
`C[C@H](CO)n1cnnc1-c1cccc(N2CCN(c3ccc(F)cn3)C2=O)n1` [Compound V-03]: the EC50 under setting [1] was less than 50 nM.
